Test results from patent publication US20250213534A1, “5-METHOXY-N,N-[…][…] THE TREATMENT OF COGNITIVE DYSFUNCTION” (GH RESEARCH IRELAND LIMITED, priority 2022, published 2025).

Key:
[1] = tested on: Salmonella typhimurium (TA98, TA100, TA1535 and TA1537); assay: Bacterial mutation test; format: cell-based; details: up to 5000 μg/plate; absence and presence of rat liver S-9
Description: (§1) These conditions included treatments at concentrations up to 5000 μg/plate (the maximum recommended concentration according to current regulatory guidelines), in the absence and in the presence of a rat liver metabolic activation system (S-9).

[2] = tested on: Escherichia coli (WP2 uvrA pKM101); assay: Bacterial mutation test; format: cell-based; details: up to 5000 μg/plate; absence and presence of rat liver S-9
Description: as §1

[3] = Pharmacokinetics after single dose via inhalation (LC-MS/MS); format: in vivo, human; details: after 3 hours; whole dose range 6, 12, 18 mg
[4] = tested on: patients with postpartum depression (PPD); assay: Clinical trial of 5-MeO-DMT via inhalation (individualized dosing regimen) in postpartum depression; details: n=1
Description: The single-arm, open-label clinical trial will involve 15 adult female patients with clinically diagnosed postpartum depression (PPD).
The second dose (12 mg) will only be administered if: • a. A peak experience (total score of ⋅75) has not been achieved following the 6 mg dose, and • b. The 6 mg dose was safe and well-tolerated according to the investigator, • c. Any psychoactive effects (PsE) of the prior dose have subsided, and • d. Pre-dose vital parameters and forced expiratory volume in one second (FEV1) are in normal range, or if outside of the normal range, are not clinically significant according to the investigator. • 3. Similarly, a third dose (18 mg) will only be administered if: • a. A peak experience (total score of ⋅75) has not been achieved following the 12 mg dose, and • b. The 12 mg dose was safe and well-tolerated according to the investigator, and • c. Any PsE of the prior dose have subsided, and • d. Pre-dose vital parameters and forced expiratory volume in one second (FEV1) are in normal range, or if outside of the normal range, are not clinically significant according to the investigator.
The patients will be assessed for a peak psychedelic experience (based on a patient-scored visual analogue scale, the PE scale), sedation, and other endpoints after dosing. Follow-up visits are planned for Day 1, and Day 7 after the dosing day.
The following criteria must be met by all patients considered for clinical trial participation: • 1. Is female and in the age range between 18 and 45 years (inclusive) at screening. • 2. Has a body mass index (BMI) in the range of 18.5 and 35 kg/m^2 (inclusive) at screening. • 3. Meets the trial criteria for PPD as assessed by a trial psychiatrist or registered psychologist: • a. Diagnosis of Major Depressive Disorder without psychotic features, confirmed by the Mini-International Neuropsychiatric Interview (MINI), with peri-partum onset that began no earlier than gestation and no later than the first 4 weeks postpartum. • b. Has a Montgomery-Åsberg Depression Rating Scale (MADRS) total score of equal to or greater than 28 at screening and pre-dose on Day 0. • 6. […] Patients must have a negative pregnancy test at screening and on the pre-test day (Day −1). • 5. Is willing to delay start of other antidepressant or anxiety medication until after the end of the trial at Day 7 and agrees to keep any psychotherapy unchanged during the trial.

In the case of `COc1ccc2[nH]cc(CCN(C)C)c2c1` [5-MeO-DMT], the Induction of mutation [1] is reported as “did not induce mutation”, the Induction of mutation [2] is reported as “did not induce mutation” and the “Detectability in the plasma” value [3] is reported as “no longer detectable”. For the same compound, the Inhalation-related adverse events [4] was “no inhalation-related adverse events”, the “MADRS remission (MADRS total score equal or less than 10)” value [4] was “fulfilled” and the “MADRS response (at least 50% improvement from baseline)” value [4] was “fulfilled”. For the same compound, the “Reported adverse events (cramping left abdominal pain and headache, Day 0)” value [4] was “mild, short-lasting and resolved spontaneously”, the “BIMF total score improvement” value ([4]; Day 7, from 92 to 105) was 14% and the “BIMF item 2 score: I feel rested” value ([4]; Day 7, Day 0 0) was 2. For the same compound, the “BIMF item 19 score: As time goes on, I am getting better at taking care of my baby” value ([4]; Day 7, Day 0 0) was 1, the “BIMF item 18 score: Anxiety or worry often interferes with my mothering ability” value ([4]; Day 7, Day 0 2) was 5 and the “BIMF item 16 score: I worry about how other people judge me (as a mother)” value ([4]; Day 7, Day 0 3) was 5. The “BIMF item 13 score: I am taking good care of my physical needs (eating, showering, etc)” value ([4]; Day 7, Day 0 4) was 5, the “BIMF item 4 score: My baby and I understand each other” value ([4]; Day 7, Day 0 5) was 5 and the “BIMF item 5 score: I am able to relax and enjoy time with my baby” value ([4]; Day 7, Day 0 5) was 6. The “BIMF item 9 score: I am getting enough encouragement from other people” value ([4]; Day 7, Day 0 5) was 6, the “BIMF item 10 score: I trust my own feelings (instincts) when it comes to taking care of my baby” value ([4]; Day 7, Day 0 5) was 6 and the “BIMF item 11 score: I take a little time each week to do something for myself” value ([4]; Day 7, Day 0 5) was 6. The “BIMF item 15 score: My baby and I are getting into a routine” value ([4]; Day 7, Day 0 5) was 6, the “BIMF item 17 score: I am able to take care of my baby and my other responsibilities” value ([4]; Day 7, Day 0 5) was 5 and the “BIMF item 1 score: I am a good mother” value ([4]; Day 7, Day 0 6) was 6. For the same compound, the “BIMF item 3 score: I am comfortable with the way I've chosen to feed my baby (either bottle or breast, or both)” value ([4]; Day 7, Day 0 6) was 6, the “BIMF item 6 score: There are people in my life that I can trust to care for my baby when I need a break” value ([4]; Day 7, Day 0 6) was 6 and the “BIMF item 8 score: I am getting enough adult interaction” value ([4]; Day 7, Day 0 6) was 6. The “BIMF item 12 score: I am taking good care of my baby's physical needs (feedings, changing diapers, doctor's appointments)” value ([4]; Day 7, Day 0 6) was 6, the “BIMF item 14 score: I make good decisions about my baby's health and well being” value ([4]; Day 7, Day 0 6) was 6 and the “BIMF item 20 score: I am satisfied with the job I am doing as a new mother” value ([4]; Day 7, Day 0 6) was 5. For the same compound, the “BIMF item 1 Δ (Day 7)” value ([4]; Day 7 vs Day 0) was 0, the “BIMF item 2 Δ (Day 7)” value ([4]; Day 7 vs Day 0) was 2 and the “BIMF item 3 Δ (Day 7)” value ([4]; Day 7 vs Day 0) was 0. For the same compound, the “BIMF item 4 Δ (Day 7)” value ([4]; Day 7 vs Day 0) was 0, the “BIMF item 5 Δ (Day 7)” value ([4]; Day 7 vs Day 0) was 1 and the “BIMF item 6 Δ (Day 7)” value ([4]; Day 7 vs Day 0) was 0. For the same compound, the “BIMF item 7 Δ (Day 7)” value ([4]; Day 7 vs Day 0) was 0, the “BIMF item 8 Δ (Day 7)” value ([4]; Day 7 vs Day 0) was 0 and the “BIMF item 9 Δ (Day 7)” value ([4]; Day 7 vs Day 0) was 1. For the same compound, the “BIMF item 10 Δ (Day 7)” value ([4]; Day 7 vs Day 0) was 1, the “BIMF item 11 Δ (Day 7)” value ([4]; Day 7 vs Day 0) was 1 and the “BIMF item 12 Δ (Day 7)” value ([4]; Day 7 vs Day 0) was 0. The “BIMF item 13 Δ (Day 7)” value ([4]; Day 7 vs Day 0) was 1, the “BIMF item 14 Δ (Day 7)” value ([4]; Day 7 vs Day 0) was 0 and the “BIMF item 15 Δ (Day 7)” value ([4]; Day 7 vs Day 0) was 1. For the same compound, the “BIMF item 16 Δ (Day 7)” value ([4]; Day 7 vs Day 0) was 2, the “BIMF item 17 Δ (Day 7)” value ([4]; Day 7 vs Day 0) was 0 and the “BIMF item 18 Δ (Day 7)” value ([4]; Day 7 vs Day 0) was 3. For the same compound, the “BIMF item 19 Δ (Day 7)” value ([4]; Day 7 vs Day 0) was 1, the “BIMF item 20 Δ (Day 7)” value ([4]; Day 7 vs Day 0) was −1 and the “Time to clinical remission after administration” value ([4]; IDR 6 mg followed by 12 mg) was no more than 2 h.
